{
  "source": "patent US20200329698A1",
  "about": "“COMPOSITIONS FOR ORGAN GRAFT PRESERVATION AND METHODS OF USE” (Nobilis Therapeutics, Inc., priority 2019, published 2020)",
  "key": {"[1]": {"test_system": "JAK/STAT signaling pathway", "conditions": "cited from earlier work"}, "[2]": {"test_system": "ex vivo renal grafts from brain death or cardiac arrest donors", "assay": "Rat hypothermic machine perfusion model", "conditions": "exposure of ex vivo grafts prior to engraftment"}, "[3]": {"test_system": "rat renal grafts from DBD donation or DCD donation", "procedure": "Rat renal transplantation was performed. Rat donor kidneys were transplanted orthotopically into recipients by using standard microvascular techniques. […] After the specified period of cold ischemia, the recipient's left kidney was extracted, and the donor renal vein was connected to the recipient renal vein through end-to-end anastomosis. The arterial anastomosis between the donor aortic patch was connected to the recipient aorta in an end-to-side manner. Urinary reconstruction was performed by ureter-to-bladder anastomosis. The total surgical ischemia time was restricted to <45 min. The contralateral kidney was removed immediately after engraftment.\nTumor necrosis factor-α (TNF-α) in the culture medium were detected by ELISA (Human TNF-α ELISA kits, INVITROGEN®, UK). Rat lung tissue and serum TNF-α were measured by ELISA (Rat TNF-α ELISA kits, INVITROGEN®, UK).\nMTS was performed on paraffin-embedded tissue according to the manufacturer's instructions (MTS kit; SIGMA-ALDRICH®, Ltd., Poole, UK). The amount of collagen deposition (percentage of MTS-stained area) was then digitally quantified with ImageJ software (U.S. National Institutes of Health, Bethesda, Md., USA).\nBlood samples were collected when the animals were euthanized. After centrifugation, serum urea and creatinine concentrations were measured with an AU2700 analyzer (OLYMPUS).\n(§1) A rat renal graft machine perfusion model was developed, (see FIG. 1B) to simulate the renal graft preservation process. A series of experiments were conducted using the Fischer-to-Lewis allogeneic renal transplant model. Grafts from donors after brain death (DBD) or cardiac arrest (DCD) were used. The preserving solution was saturated with dexmedetomidine at 0.1 nM[32]. The grafts were extracted and then machine-perfused with UW solution at 4° C.[18] with a flow rate of 1.5-2 ml/min [39] for 4 hours and then kept in the preserving solution until 24 hours. Grafts were then transplanted into Lewis recipient immediately following extraction (cold-ischemia 0 hr), or stored in preservative solution for 24 hr (cold-ischemia 24 hr), The orthotopic renal transplantation into Lewis recipients was conducted and their contralateral kidneys were removed at the end of surgery. The recipient received cyclosporine A (5 mg/kg/day intramuscular injection per day) for 10 days to prevent acute immune rejection.\nWith respect to FIGS. 4A-4J, Fischer rat renal grafts from DBD donation or DCD donation were stored in UW preservative solution at 4° C., saturated with DEX for up to 24 hrs (Cold ischemia CI 24 hr), grafts harvested from donor (cold ischemia CI 0 hr) serves as control. (A and B) Serum creatinine and urea concentration were analyzed 24 hours after transplantation (n=6). (C and D) Tissue cytokine TNF-α and IL-1β concentration was assessed by ELISA. (E) TUNEL staining of renal tubules in renal cortices 24 hours after transplantation. Scale bar=50 μm. In DCD grafts, Infiltrated CD68+ macrophages (Red fluoresce; F) and renal fibrosis (blue MTS staining; G) on day 8 after transplantation were assessed. In both DCD and DBD grafts, (H) Analysis of the percentage of TUNEL+ tubular cells in renal cortices. (I) The number of CD68+ macrophage, and (J) the area of MTS staining. Data is expressed as mean±SD (n=6). […] CI: cold ischemia, Vh: Vehicle, Dex: Dexmedetomidine."}, "[4]": {"test_system": "rat renal grafts from DBD donation or DCD donation", "conditions": "Dex 0.1 nM in UW at 4° C., cold ischemia 24 hr, vs vehicle", "procedure": "For in vivo fluorescence or DAB staining, 25-μm frozen lung sections were incubated with rabbit anti-Rip1 (1:200, SANTA CRUZ BIOTECHNOLOGY®), rabbit anti-Rip3 (1:200, SANTA CRUZ BIOTECHNOLOGY®), mouse anti-HMGB-1 (1:200, Abcam), Goat anti-TLR-4 (1:200, SANTA CRUZ BIOTECHNOLOGY®), rabbit anti-Nrf-2 (1:200, SANTA CRUZ BIOTECHNOLOGY®), mouse anti-SOD-1 (1:200, Abcam), mouse anti-NQO-1 (1:200 Abcam), rabbit anti-3-nitrotyrosine (1:200, Abcam) and rabbit anti-4-hydroxynonenal (1:200, Abcam) at 4° C. overnight. After washing with PBST, the slides were incubated with fluorochrome-conjugated secondary antibodies (MILLIPORE™, UK). For double-labelled immunofluorescence, lung samples were incubated with the first primary antibody overnight, followed by the first secondary antibody, and then the second primary antibody and the second secondary antibody. The slides were counterstained with nuclear dye DAPI and mounted with […]® Mounting Medium (Vector lab, USA). Sections were examined using an OLYMPUS™ (Watford, UK) BX4 microscope under constant exposure level. Immunofluorescence was quantified using ImageJ (National Institutes of Health, Maryland, USA) and the background was subtracted. Ten representative regions per section (in vivo) or field (in vitro) were randomly selected by an assessor blinded to the treatment groups. Values were then calculated as percentages of the mean value for naïve controls and expressed as percentage fluorescence intensity.\nLung alveolar cell death was detected by the in situ TUNEL assay (MILLIPORE™) according to the manufacturer's instructions. TUNEL nuclei were visualized by green FITC fluorescence.\nas §1"}, "[5]": {"conditions": "after transplantation, graft stored with Dex 0.1 nM, CI 24 hr"}, "[6]": {"conditions": "day 16 after surgery, graft stored with Dex 0.1 nM"}},
  "data": [
    {"compound": "Cc1cccc([C@H](C)c2cnc[nH]2)c1C", "note": "[Dexmedetomidine]", "values": [
      {"measurement": "level of p-JAK2 and its downstream effectors p-STAT1 and STATS", "setting": "[1]; mice, warm ischemia-reperfusion injury", "result": "significant reduced level"},
      {"measurement": "long-term renal function", "setting": "[1]; mouse, in vivo", "result": "long-term functional renoprotection"},
      {"measurement": "survival", "setting": "[1]; mouse, in vivo", "result": "increased survival"},
      {"measurement": "tubular architecture and function following renal ischemia", "setting": "[1]; pre- or post-treatment", "result": "improved tubular architecture and function"},
      {"measurement": "organ graft injury, histologically and functionally", "setting": "[2]", "result": "prevent organ graft injury"},
      {"measurement": "cell death (number of TUNEL+ cells) in renal cortices", "setting": "[3]; 24 hours after transplantation, graft stored with Dex 0.1 nM", "result": "reduced"},
      {"measurement": "tissue level of cytokine IL-1β (ELISA)", "setting": "[3]; [5]", "result": "reduced tissue level"},
      {"measurement": "tissue level of cytokine TNF-α (ELISA)", "setting": "[3]; [5]", "result": "reduced tissue level"},
      {"measurement": "renal functional recovery (serum creatinine and urea)", "setting": "[3]; day 1 (24 hours) after transplantation, graft stored with Dex 0.1 nM, CI 24 hr", "result": "induced a quick functional recovery"},
      {"measurement": "macrophage infiltration (number of CD68+ cells)", "setting": "[3]; [6]", "result": "attenuated"},
      {"measurement": "renal fibrosis (MTS staining)", "setting": "[3]; [6]", "result": "attenuated"},
      {"measurement": "protection in ex vivo renal allograft from cardiac arrest donation", "setting": "[3]; overall conclusion", "result": "conferred significant protection"},
      {"measurement": "Heme oxygenase 1 (HO-1) expression, immunofluorescence", "setting": "[4]", "result": "significantly increased"},
      {"measurement": "Nrf2 expression, immunofluorescence", "setting": "[4]", "result": "significantly increased"},
      {"measurement": "necroptosis (expression of MLKL)", "setting": "[4]", "result": "suppressed necroptosis"},
      {"measurement": "renal graft architecture / morphology (H&E staining, injury scoring)", "setting": "[4]", "result": "preserved the renal graft architecture"},
      {"measurement": "tissue injury in the renal cortex (TUNEL cell death staining)", "setting": "[4]", "result": "reduced tissue injury in the renal cortex"}
    ]}
  ]
}
